Measured values reported in patent US8455475B2 (Gruenenthal GmbH, priority 2009, dated 2013).

The compounds below were run against T1, rat B1R (bradykinin receptor 1) (Rattus norvegicus, UniProt P97583) (assay: FLIPR Ca2+ assay (Fluo-4) on CHO K1 cells stably transfected with the B1R gene of the rat (rB1R cells): % inhibition at 10 μM / IC50, agonist Des-Arg9-bradykinin). Conditions: CHO-K1, rat B1R.
T1 construct: expressed in transfected cells; host or cells: CHO K1 cells
T1 sequence (P97583 1-337): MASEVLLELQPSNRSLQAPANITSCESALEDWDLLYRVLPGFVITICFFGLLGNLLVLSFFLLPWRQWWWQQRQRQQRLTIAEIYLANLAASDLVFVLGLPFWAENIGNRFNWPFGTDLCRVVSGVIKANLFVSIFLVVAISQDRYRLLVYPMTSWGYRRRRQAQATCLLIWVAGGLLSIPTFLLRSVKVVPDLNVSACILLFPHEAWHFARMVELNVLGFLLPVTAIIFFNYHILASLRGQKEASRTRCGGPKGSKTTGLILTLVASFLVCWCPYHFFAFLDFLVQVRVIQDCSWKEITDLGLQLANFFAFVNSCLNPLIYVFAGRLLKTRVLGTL
Format: cell-based
Outline: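 Loading with Fluo-4 occurs for 60 min at 37 °C, or alternatively in buffer A, before FLIPR measurement. Compounds are applied, incubated 10–20 min, and then the EC80 agonist is added. Antagonism appears as reduced peak Ca2+ signal relative to maximal inhibition.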

Row | SMILES | inhibition at 10 µM [%]
1 | COc1ccc(CN2CCC3(CC2)CCN(C(=O)c2ccc4c(c2)C(N(C)C(=O)c2ccccc2Cl)CC4)C3)cc1F (centres unmarked) [IND_CC-552, 2-Chloro-N-[6-[8-[(3-fluoro-4-methoxy-phenyl)-methyl]-2,8-diazaspiro[4.5]-decane-2-carbonyl]-2,3-dihydro-1H-inden-1-yl]-N-methyl-benzamide] | 68
2 | O=C(NC1CCc2ccc(C(=O)N3CCC4(CCN(Cc5csnn5)CC4)C3)cc21)c1ccccc1Cl (centres unmarked) [IND_CC-555, 2-Chloro-N-[6-[8-([1,2,3]thiadiazol-4-yl-methyl)-2,8-diazaspiro[4.5]decane-2-carbonyl]-2,3-dihydro-1H-inden-1-yl]-benzamide] | 91
3 | CN(C(=O)c1ccccc1Cl)C1CCc2ccc(C(=O)N3CCC4(CCN(Cc5c(F)cccc5Cl)CC4)C3)cc21 (centres unmarked) [IND_CC-558, 2-Chloro-N-[6-[8-[(2-chloro-6-fluoro-phenyl)-methyl]-2,8-diazaspiro[4.5]-decane-2-carbonyl]-2,3-dihydro-1H-inden-1-yl]-N-methyl-benzamide] | 62
4 | Cc1c(CN2CCC3(CC2)CCN(C(=O)c2ccc4c(c2)C(NC(=O)c2ccccc2Cl)CC4)C3)cnn1C (centres unmarked) [IND_CC-559, 2-Chloro-N-[6-[8-[(1,5-dimethyl-1H-pyrazol-4-yl)-methyl]-2,8-diazaspiro[4.5]decane-2-carbonyl]-2,3-dihydro-1H-inden-1-yl]-benzamide] | 56
5 | Cc1noc(C)c1CN1CCC2(CC1)CCN(C(=O)c1ccc3c(c1)C(NC(=O)c1ccccc1Cl)CC3)C2 (centres unmarked) [IND_CC-560, 2-Chloro-N-[6-[8-[(3,5-dimethyl-isoxazol-4-yl)-methyl]-2,8-diazaspiro[4.5]decane-2-carbonyl]-2,3-dihydro-1H-inden-1-yl]-benzamide] | 95
6 | Cc1nn(C)c(C)c1CN1CCC2(CC1)CCN(C(=O)c1ccc3c(c1)C(NC(=O)c1ccccc1Cl)CC3)C2 (centres unmarked) [IND_CC-564, 2-Chloro-N-[6-[8-[(1,3,5-trimethyl-1H-pyrazol-4-yl)-methyl]-2,8-diazaspiro[4.5]decane-2-carbonyl]-2,3-dihydro-1H-inden-1-yl]-benzamide] | 81

Further lines, results first:

Row | inhibition at 10 µM [%] | SMILES
7 | 73 | Cc1nc(CN2CCC3(CC2)CCN(C(=O)c2ccc4c(c2)C(NC(=O)c2ccccc2Cl)CC4)C3)c[nH]1 (centres unmarked) [IND_CC-554, 2-Chloro-N-[6-[8-[(2-methyl-1H-imidazol-4-yl)-methyl]-2,8-diazaspiro[4.5]decane-2-carbonyl]-2,3-dihydro-1H-inden-1-yl]-benzamide]
8 | 103 | O=C(NC1CCc2ccc(C(=O)N3CCC4(CCN(Cc5c(F)cccc5Cl)CC4)C3)cc21)c1ccccc1Cl (centres unmarked) [IND_CC-557, 2-Chloro-N-[6-[8-[(2-chloro-6-fluoro-phenyl)-methyl]-2,8-diazaspiro[4.5]decane-2-carbonyl]-2,3-dihydro-1H-inden-1-yl]-benzamide]
9 | 85 | N#Cc1ccc(CN2CCC3(CC2)CCN(C(=O)c2ccc4c(c2)C(NC(=O)c2ccccc2Cl)CC4)C3)cc1 (centres unmarked) [IND_CC-561, 2-Chloro-N-[6-[8-[(4-cyano-phenyl)-methyl]-2,8-diazaspiro[4.5]decane-2-carbonyl]-2,3-dihydro-1H-inden-1-yl]-benzamide]
10 | 92 | N#Cc1ccccc1CN1CCC2(CC1)CCN(C(=O)c1ccc3c(c1)C(NC(=O)c1ccccc1Cl)CC3)C2 (centres unmarked) [IND_CC-563, 2-Chloro-N-[6-[8-[(2-cyano-phenyl)-methyl]-2,8-diazaspiro[4.5]decane-2-carbonyl]-2,3-dihydro-1H-inden-1-yl]-benzamide]
11 | 68 | CCn1cc(CN2CCC3(CC2)CCN(C(=O)c2ccc4c(c2)C(NC(=O)c2ccccc2Cl)CC4)C3)c(C)n1 (centres unmarked) [IND_CC-565, 2-Chloro-N-[6-[8-[(1-ethyl-3-methyl-1H-pyrazol-4-yl)-methyl]-2,8-diazaspiro[4.5]decane-2-carbonyl]-2,3-dihydro-1H-inden-1-yl]-benzamide]
